The term IC50 denotes the point on the concentration scale where inhibition reaches its midpoint.

Chain of OGG1 (O15527 whole entry): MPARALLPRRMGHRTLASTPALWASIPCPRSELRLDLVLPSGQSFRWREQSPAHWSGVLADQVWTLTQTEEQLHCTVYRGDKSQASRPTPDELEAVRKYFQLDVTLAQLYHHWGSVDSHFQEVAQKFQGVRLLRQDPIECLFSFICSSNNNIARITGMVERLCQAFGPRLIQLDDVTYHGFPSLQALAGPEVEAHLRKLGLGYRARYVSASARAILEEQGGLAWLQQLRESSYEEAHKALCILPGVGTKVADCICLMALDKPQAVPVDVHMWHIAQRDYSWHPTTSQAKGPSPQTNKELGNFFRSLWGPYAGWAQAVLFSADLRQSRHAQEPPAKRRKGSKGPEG

The experiment addresses OGG1 (Homo sapiens (Human), UniProt O15527). In words: In vitro OGG1 activity assay. Type of experiment: biochemical. Particulars: 800 pM OGG1 enzyme, 2 nM human APEX1, 10 nM 8-oxoA:C substrate. The method, then: Method 1: In Vitro OGG1 Activity Assay OGG1 activity is assayed by measuring the increase in fluorescence from a duplex oligonucleotide containing an OGG1 substrate and a fluorophore in close proximity that are quenched by a quencher on the complementary strand. […] OGG1 activity releases the substrate base from DNA by cleaving the N-glycosidic bond between base and deoxyribose. The resulting apurinic site is cleaved by an excessive amount APEX1 activity which cause the duplex to melt, which in turn cause the fluorophore to become unquenched. Compounds to be tested are dissolved in DMSO and nano-dispensed directly into black 384-well plates, followed by transfer of enzyme and substrate solutions. […] The fluorescent signal is recorded in a plate reader equipped with suitable filters to register fluorescein fluorescence.
Take `COc1cc(NC(=O)[C@H]2CC[C@@H](n3c(=O)[nH]c4cnccc43)CC2)ccc1C` [Example 236, Cis-N-(3-methoxy-4-methylphenyl)-4-{2-oxo-1H,2H,3H-imidazo[4,5-c]pyridin-1-yl}cyclohexane-1-carboxamide]: the IC50 was found to be 196 nM.
The value for `COc1cc(NC(=O)N2CCC(n3c(=O)[nH]c4c(Cl)cccc43)CC2)ccc1C` [Example 114, 4-(4-Chloro-2-oxo-2,3-dihydro-1H-1,3-benzodiazol-1-yl)-N-(3-methoxy-4-methylphenyl)piperidine-1-carboxamide] was 690 nM; that for `COc1cc(NC(=O)[C@H]2CC[C@@H](n3c(=O)[nH]c4c(C(=O)NCCNS(C)(=O)=O)cccc43)CC2)ccc1C` [Example 251, N-(2-Methanesulfonamidoethyl)-2-oxo-1-[cis-4-[(3-methoxy-4-methylphenyl)carbamoyl]cyclohexyl]-2,3-dihydro-1H-1,3-benzodiazole-4-carboxamide] was 4.25 nM; that for `Cc1cccc(NC(=O)[C@H]2CC[C@@H](n3c(=O)[nH]c4c(Br)cccc43)CC2)c1` [Example 143, (Cis)-4-(4-bromo-2-oxo-2,3-dihydro-1H-1,3-benzodiazol-1-yl)-N-(3-methylphenyl)cyclohexane-1-carboxamide] was 1200 nM.
In turn, `COc1cc(Cl)cc(NC(=O)[C@H]2CC[C@@H](n3c(=O)[nH]c4c(Br)cccc43)CC2)c1` [Example 163, (Cis)-4-(4-bromo-2-oxo-2,3-dihydro-1H-1,3-benzodiazol-1-yl)-N-(3-chloro-5-methoxyphenyl)cyclohexane-1-carboxamide] yielded an IC50 of 3160 nM.
The value for `COc1ccc(NC(=O)N2CCC(n3c(=O)[nH]c4c(N)cccc43)CC2)cc1Cl` [Example 174, 4-(4-Amino-2-oxo-2,3-dihydro-1H-1,3-benzodiazol-1-yl)-N-(3-chloro-4-methoxyphenyl)piperidine-1-carboxamide] was 2540 nM; that for `CC1CC(n2c(=O)[nH]c3c(Br)cccc32)CCN1C(=O)Nc1ccc(Cl)c(Cl)c1` (centres unmarked) [Example 112, 4-(4-Bromo-2-oxo-2,3-dihydro-1H-benzo[d]imidazol-1-yl)-N-(3,4-dichlorophenyl)-2-methylpiperidine-1-carboxamide] was 4940 nM; that for `COc1cc(NC(=O)[C@H]2CC[C@@H](n3c(=O)[nH]c4c(C(=O)NCCN)cccc43)CC2)ccc1C` [Example 247, N-(2-Aminoethyl)-2-oxo-1-[cis-4-[(3-methoxy-4-methylphenyl)carbamoyl]cyclohexyl]-2,3-dihydro-1H-1,3-benzodiazole-4-carboxamide] was 0.62 nM.
Turning to `CC(=O)Nc1cccc2c1[nH]c(=O)n2[C@H]1CC[C@@H](C(=O)Nc2ccc3[nH]ncc3c2)CC1` [Example 315, Cis-4-(4-acetamido-2-oxo-2,3-dihydro-1H-1,3-benzodiazol-1-yl)-N-(1H-indazol-5-yl)cyclohexane-1-carboxamide], the IC50 is 759 nM.
The value for `COc1cc(NC(=O)[C@H]2CC[C@@H](n3c(=O)[nH]c4c(OCCC(C)C)cccc43)CC2)ccc1C` [Example 325, Cis-N-(3-methoxy-4-methylphenyl)-4-[4-(3-methylbutoxy)-2-oxo-2,3-dihydro-1H-1,3-benzodiazol-1-yl]cyclohexane-1-carboxamide] was 314 nM; that for `O=c1[nH]c2c(Br)cccc2n1[C@H]1CC[C@@H](C(=O)Nc2ccc(F)c(Cl)c2)CC1` [Example 162, (Cis)-4-(4-bromo-2-oxo-2,3-dihydro-1H-1,3-benzodiazol-1-yl)-N-(3-chloro-4-fluorophenyl)cyclohexane-1-carboxamide] was 1290 nM.
The value for `COc1cc(NC(=O)[C@H]2CC[C@@H](n3c(=O)[nH]c4c(C(=O)NCCN5CCNCC5)cccc43)CC2)ccc1C` [Example 252, 2-Oxo-N-[2-(piperazin-1-yl)ethyl]-1-[cis-4-[(3-methoxy-4-methylphenyl)carbamoyl]cyclohexyl]-2,3-dihydro-1H-1,3-benzodiazole-4-carboxamide] was 3.94 nM; that for `COc1ccc(NC(=O)N2CCC(n3c(=O)[nH]c4c(-c5ccc(N)nc5)cccc43)CC2)cc1Cl` [Example 99, 4-[4-(6-Aminopyridin-3-yl)-2-oxo-2,3-dihydro-1H-1,3-benzodiazol-1-yl]-N-(3-chloro-4-methoxyphenyl)piperidine-1-carboxamide] was 1160 nM.
The value for `O=c1[nH]c2c(Br)cccc2n1[C@H]1CC[C@@H](C(=O)Nc2cnc(Cl)c(Cl)c2)CC1` [Example 185, Cis-4-(4-bromo-2-oxo-2,3-dihydro-1H-1,3-benzodiazol-1-yl)-N-(5,6-dichloropyridin-3-yl)cyclohexane-1-carboxamide] was 1390 nM.
Compound `COc1ccc(NC(=O)[C@H]2CC[C@@H](n3c(=O)[nH]c4c(Br)cccc43)CC2)c(F)c1` [Example 156, (Cis)-4-(4-bromo-2-oxo-2,3-dihydro-1H-1,3-benzodiazol-1-yl)-N-(2-fluoro-4-methoxyphenyl)cyclohexane-1-carboxamide] had an IC50 of 173 nM.
The value for `COc1ccc(NC(=O)[C@H]2CC[C@@H](n3c(=O)[nH]c4ccc(F)cc43)CC2)cc1F` [Example 218, Cis-4-(6-fluoro-2-oxo-2,3-dihydro-1H-1,3-benzodiazol-1-yl)-N-(3-fluoro-4-methoxyphenyl)cyclohexane-1-carboxamide] was 9010 nM.
Take `COc1cc(NC(=O)[C@H]2CC[C@@H](n3c(=O)[nH]c4c(NCC(F)(F)F)cccc43)CC2)ccc1C` [Example 323, Cis-N-(3-methoxy-4-methylphenyl)-4-{2-oxo-4-[(2,2,2-trifluoroethyl)amino]-2,3-dihydro-1H-1,3-benzodiazol-1-yl}cyclohexane-1-carboxamide]: the IC50 was 226 nM.
The value for `COc1ccc(NC(=O)N2CCC(n3c(=O)[nH]c4cc(C)cnc43)CC2)cc1Cl` [Example 181, N-(3-Chloro-4-methoxyphenyl)-4-{6-methyl-2-oxo-1H,2H,3H-imidazo[4,5-b]pyridin-3-yl}piperidine-1-carboxamide] was 7090 nM; that for `COc1cc(NC(=O)N2CCC(n3c(=O)[nH]c4c(-c5cncc(N)c5)cccc43)CC2)ccc1Cl` [Example 104, 4-[4-(5-Aminopyridin-3-yl)-2-oxo-2,3-dihydro-1H-1,3-benzodiazol-1-yl]-N-(4-chloro-3-methoxyphenyl)piperidine-1-carboxamide] was 2280 nM; that for `CNC(=O)c1cccc2c1[nH]c(=O)n2[C@H]1CC[C@@H](C(=O)Nc2ccc(C)c(OC)c2)CC1` [Example 259, N-Methyl-2-oxo-1-[cis-4-[(3-methoxy-4-methylphenyl)carbamoyl]cyclohexyl]-2,3-dihydro-1H-1,3-benzodiazole-4-carboxamide] was 3.94 nM.
The value for `O=c1[nH]c2c(Br)cccc2n1[C@H]1CC[C@@H](C(=O)Nc2cccc(O)c2)CC1` [Example 196, Cis-4-(4-bromo-2-oxo-2,3-dihydro-1H-1,3-benzodiazol-1-yl)-N-(3-hydroxyphenyl)cyclohexane-1-carboxamide] was 647 nM; that for `COc1cc(NC(=O)[C@H]2CC[C@@H](n3c(=O)[nH]c4c(C(=O)NCC(O)CO)cccc43)CC2)ccc1C` (stereo partly drawn) [Example 248, N-(2,3-Dihydroxypropyl)-2-oxo-1-[cis-4-[(3-methoxy-4-methylphenyl)carbamoyl]cyclohexyl]-2,3-dihydro-1H-1,3-benzodiazole-4-carboxamide] was 6.77 nM.
The value for `COc1cc(NC(=O)[C@H]2CC[C@@H](n3c(=O)[nH]c4c(OCC(=O)O)cccc43)CC2)ccc1C` [Example 242, 2-({2-Oxo-1-[cis-4-[(3-methoxy-4-methylphenyl)carbamoyl]cyclohexyl]-2,3-dihydro-1H-1,3-benzodiazol-4-yl}oxy)acetic acid] was 126 nM.
For `Cc1ccc(NC(=O)[C@H]2CC[C@@H](n3c(=O)[nH]c4c(Br)cccc43)CC2)cc1C(F)(F)F` [Example 144, (Cis)-4-(4-bromo-2-oxo-2,3-dihydro-1H-1,3-benzodiazol-1-yl)-N-[4-methyl-3-(trifluoromethyl)phenyl]cyclohexane-1-carboxamide], the IC50 is 983 nM.
The value for `COc1ncc(NC(=O)[C@H]2CC[C@@H](n3c(=O)[nH]c4c(OC)cccc43)CC2)cc1C` [Example 208, Cis-4-(4-methoxy-2-oxo-2,3-dihydro-1H-1,3-benzodiazol-1-yl)-N-(6-methoxy-5-methylpyridin-3-yl)cyclohexane-1-carboxamide] was 115 nM; that for `CNCCN(C)C(=O)c1cccc2c1[nH]c(=O)n2[C@H]1CC[C@@H](C(=O)Nc2ccc(C)c(OC)c2)CC1` [Example 266, N-Methyl-N-[2-(methylamino)ethyl]-2-oxo-1-[cis-4-[(3-methoxy-4-methylphenyl)carbamoyl]cyclohexyl]-2,3-dihydro-1H-1,3-benzodiazole-4-carboxamide] was 8.16 nM.
The value for `COc1cc(NC(=O)N2CCC(n3c(=O)[nH]c4c(OC)cccc43)CC2)ccc1C` [Example 116, 4-(4-Methoxy-2-oxo-2,3-dihydro-1H-1,3-benzodiazol-1-yl)-N-(3-methoxy-4-methylphenyl)piperidine-1-carboxamide] was 2060 nM; that for `O=C(Nc1ccc(I)cc1)N1CCC(n2c(=O)[nH]c3c(-c4ccc[nH]4)cccc32)CC1` [Example 25, N-(4-iodophenyl)-4-[2-oxo-4-(1H-pyrrol-2-yl)-2,3-dihydro-1H-1,3-benzodiazol-1-yl]piperidine-1-carboxamide] was 765 nM.
The value for `COc1ncc(NC(=O)[C@H]2CC[C@@H](n3c(=O)[nH]c4ncccc43)CC2)cc1C` [Example 235, Cis-N-(6-methoxy-5-methylpyridin-3-yl)-4-{2-oxo-1H,2H,3H-imidazo[4,5-b]pyridin-1-yl}cyclohexane-1-carboxamide] was 1450 nM.

These data come from US11970474B2, “Substituted benzodiazoles and use thereof in therapy” (THOMAS HELLEDAYS STIFTELSE FÖR MEDICINSK FORSKNING, priority 2018, dated 2024).
